# Assays:
# [1] = Rat pharmacokinetics (oral and IV), plasma by LC-MS/MS; assay type: in vivo, rats (Wistar rat strains); conditions: for AUC(0-t): Compound 1 prepared by Method 2, Compound 1D prepared by Method 2, read-out: AUC0-24
# Protocol: The oral bioavailability of Compound 1 and its salts were evaluated in rats. The protocol for the pharmacokinetic (PK) studies in rats is provided below.
# Formulation 1: Polysorbate 80 (10% v/v)+Methyl Cellulose (MC) (0.5% w/v) • 1. 200 mg^#of the test compound was weighed and transferred into a mortar. • 2. 1.0 mL of polysorbate 80 (10% v/v of the final suspension) was added to the mortar and the test item was triturated to afford a smooth paste. • 3. 9.0 mL of 0.5% methyl cellulose (4000 cps) was added and triturated to afford a fine suspension. • 4. The final strength of the formulation was 20.0 mg/mL. #For salts of the test compound in order to achieve the equivalent dose level on a molar basis as the free base, a correction factor was used based on the salt and purity. Formulation 2: Propylene Glycol (40% v/v)+60% Methyl Cellulose (MC) (0.5% w/v) • 1. 1400 mg #of the test compound was weighed and transferred into a glass beaker. • 2. 28.0 mL of propylene glycol (1,2-popanediol) (40% v/v of the final volume) was added to the glass beaker and sonicated for 20 min to dissolve. (strength is 50 mg/mL) • 3. At the time of dosing, 20 mL of propylene glycol (50.0 mg/mL) and 30.0 mL of 0.5% methyl cellulose (4000 cps) were mixed with continuous stirring to afford a clear solution • 4. The final strength of the formulation was 20.0 mg/mL. • #For salts of the test compound in order to achieve the equivalent dose level on a molar basis as the free base, a correction factor was used based on the salt and purity.
# (§1) Protocol: All animals (mice (BALB/c mice), rats (Wistar rat strains), and dogs (beagle, non-naïve)) were fasted overnight (12 hours) before dosing and continued till 4.0 hours after administration of test item. The blood samples (all collections each of 150 μL from each animal) were collected according to the sampling schedule from orbital sinus or jugular vein into the micro centrifuge tube containing dipotassium EDTA as an anticoagulant. Blood samples were centrifuged immediately with a speed of 4000 RPM for 10 min at 4° C. and separated plasma samples were frozen at below −80° C. and stored until analysis. The plasma concentrations of test item in all samples were analysed by LC-MS/MS method Pharmacokinetic parameters viz. Cmax, AUC0-t, AUC0-∞, Tmax, and t½, were estimated by using WinNonlin software.
# [2] = tested on: BRCA mutant and non-BRCA mutant cancer cell lines; test: Cell proliferation assay to determine GI50 in BRCA mutant and non-BRCA mutant cancer cell lines; assay type: cell-based; conditions: range over BRCA mutant and non-BRCA mutant cancer cell lines; treatment 72, 120 or 144 hours
# Protocol: On Day “0” the test cells were plated in 100 μL/well in complete media in a 96-well plate in triplicates and plates were incubated at 37° C. and 5% CO2. On Day 1, 10 μL of MTT (5 mg/ml) were added to the column designated for Day “0”. It was mixed well and incubated at 37° C. and 5% CO2 for 3.5 h. Cells were pelleted down at 4000 rpm for 10 minutes. Media was aspirated out and 150 μL of DMSO were added to the cells and mixed by pipetting to dissolve the crystals. Plate was read at A560 nm and A640. DMSO dilutions of the inhibitors (Compound 1 or Compound 1D) were diluted to 3× of required concentration in growth medium. Cells in each well were treated with 50 μL of complete media containing inhibitor. DMSO concentration in the well was 0.1%. Plates were incubated at 37° C. and 5% CO2 as required for 144 hours. 15 μL of MTT (5 mg/mL) was added to the wells. Plates were incubated at 37° C. and 5% CO2 for 3.5 hours. After incubation, cells are pelleted down at 4000 rpm for 10 min. Media was aspirated and 150 μL of DMSO per well were added to dissolve the formazan crystals. Plate was read at A560 nm and A640. […]
# Cancer cell lines were plated at desired density in their respective complete media and incubated overnight at 37° C. and 5% CO2. […] At the end of the treatment period, cell viability was measured and GI50 values were calculated.
# [3] = Mice pharmacokinetics (IV and oral), plasma by LC-MS/MS; assay type: in vivo, mice (BALB/c mice)
# Protocol: as §1
# [4] = Dog pharmacokinetics (IV and oral), plasma by LC-MS/MS; assay type: in vivo, dogs (beagle, non-naïve)
# Protocol: as §1
# [5] = Wistar, plasma, oral, 100 mg/kg, Formulation 1: Polysorbate 80 (10% v/v) + MC (0.5% w/v), Compound 1 prepared by Method 2, Compound 1D prepared by Method 2
# [6] = Wistar, plasma, oral, 100 mg/kg, Formulation 1: Polysorbate 80 (10% v/v) + MC (0.5% w/v)
# [7] = Wistar, plasma, oral, 100 mg/kg, Formulation 1: Polysorbate 80 (10% v/v) + MC (0.5% w/v), Compound 1 prepared by Method 2, Compound 1D prepared by Method 2, read-out: Tmax
# [8] = oral, 100 mg/kg, Formulation 1: Polysorbate 80 (10% v/v) + MC (0.5% w/v), Compound 1 prepared by Method 2, Compound 1D prepared by Method 2
# [9] = oral, 100 mg/kg, Formulation 1: Polysorbate 80 (10% v/v) + MC (0.5% w/v), Compound 1 prepared by Method 2, Compound 1D prepared by Method 2, 100 mg/kg
# [10] = oral, 100 mg/kg, Formulation 1: Polysorbate 80 (10% v/v) + MC (0.5% w/v), Compound 1C prepared by Method 1
# [11] = oral, 100 mg/kg, Formulation 1: Polysorbate 80 (10% v/v) + MC (0.5% w/v), Compound 1C prepared by Method 2
# [12] = oral, 100 mg/kg, Formulation 2: PG (40% v/v) + 60% MC (0.5% w/v), Compound 1D prepared by Method 2
# [13] = oral, 100 mg/kg, Formulation 2: PG (40% v/v) + 60% MC (0.5% w/v), Compound 1D prepared by Method 3
smiles,measurement,setting,value
"C[C@]1(O)C(=O)N(c2cncc(Cc3n[nH]c(=O)c4ccccc34)c2)c2ccccc21 [Compound 1, (R)-(+)-4-((5-(3-Hydroxy-3-methyl-2-oxoindolin-1-yl)pyridin-3-yl)methyl)phthalazin-1(2H)-one]",Cmax,[1]; [5],2.56 µM
same,AUC(0-t),[1]; [6],7.81 µM·h
same,Tmax,[1]; [7],30 min
same,GI50,[2],0.043 to 19.8 µM
same,melting point,,110 to 113 °C
"C[C@]1(O)C(=O)N(c2cncc(Cc3n[nH]c(=O)c4ccccc34)c2)c2ccccc21.Cl [Compound 1A, (R)-(+)-4-((5-(3-Hydroxy-3-methyl-2-oxoindolin-1-yl)pyridin-3-yl)methyl)phthalazin-1(2H)-one, hydrochloride]",Cmax,[1]; [5],4.38 µM
same,AUC(0-t),[1]; [6],23.3 µM·h
same,Tmax,[1]; [7],15 min
same,melting point,,226 to 228 °C
"C[C@]1(O)C(=O)N(c2cncc(Cc3n[nH]c(=O)c4ccccc34)c2)c2ccccc21.O=S(=O)(O)c1ccccc1 [Compound 1B, (R)-(+)-4-((5-(3-hydroxy-3-methyl-2-oxoindolin-1-yl)pyridin-3-yl)methyl)phthalazin-1(2H)-one, benzene sulfonate]",AUC0-24,[1]; [8],32.43 µM·h
same,Tmax,[1]; [8],30 min
same,Cmax,[1]; [9],17.2 µM
"C[C@]1(O)C(=O)N(c2cncc(Cc3n[nH]c(=O)c4ccccc34)c2)c2ccccc21.Cc1ccc(S(=O)(=O)O)cc1 [Compound 1C, (R)-(+)-4-((5-(3-hydroxy-3-methyl-2-oxoindolin-1-yl)pyridin-3-yl)methyl)phthalazin-1(2H)-one, 4-methylbenzene sulfonate]",AUC0-24,[1]; [10],39.98 µM·h
same,Cmax,[1]; [10],11.9 µM
same,Tmax,[1]; [10],30 min
same,AUC0-24,[1]; [11],23.09 µM·h
same,Cmax,[1]; [11],10.5 µM
same,Tmax,[1]; [11],15 min
"CS(=O)(=O)O.C[C@]1(O)C(=O)N(c2cncc(Cc3n[nH]c(=O)c4ccccc34)c2)c2ccccc21 [Compound 1D, (R)-(+)-4-((5-(3-Hydroxy-3-methyl-2-oxoindolin-1-yl)pyridin-3-yl)methyl)phthalazin-1(2H)-one, methane sulfonate]",AUC0-24,"[1]; IV, 1 mg/kg",1.18 µM·h
same,C0,"[1]; IV, 1 mg/kg",5.25 µM
same,Cmax,"[1]; IV, 1 mg/kg",4.47 µM
same,AUC0-24,"[1]; oral, 10 mg/kg",8.96 µM·h
same,Cmax,"[1]; oral, 10 mg/kg",8.43 µM
same,Tmax,"[1]; oral, 10 mg/kg",22.8 min
same,AUC0-24,[1]; [8],34.71 µM·h
same,Tmax,[1]; [8],15 min
same,Cmax,[1]; [9],13 µM
same,AUC0-24,[1]; [12],135.36 µM·h
same,Cmax,[1]; [12],55.6 µM
same,Tmax,[1]; [12],30 min
same,AUC0-24,[1]; [13],139.36 µM·h
same,Cmax,[1]; [13],53.7 µM
same,Tmax,[1]; [13],30 min
same,AUC0-24,"[3]; IV, 1 mg/kg",1.12 µM·h
same,C0,"[3]; IV, 1 mg/kg",3.12 µM
same,Cmax,"[3]; IV, 1 mg/kg",2.87 µM
same,AUC0-24,"[3]; oral, 10 mg/kg",5.64 µM·h
same,Cmax,"[3]; oral, 10 mg/kg",7.62 µM
same,Tmax,"[3]; oral, 10 mg/kg",15 min
same,AUC0-24,"[4]; IV, 1 mg/kg",2.73 µM·h
same,C0,"[4]; IV, 1 mg/kg",4.11 µM
same,Cmax,"[4]; IV, 1 mg/kg",3.47 µM
same,AUC0-24,"[4]; oral, 20 mg/kg",57.05 µM·h
same,Cmax,"[4]; oral, 20 mg/kg",22.9 µM
same,Tmax,"[4]; oral, 20 mg/kg",30 min

# Source: patent US20240199582A1, “INHIBITORS OF POLY(ADP-RIBOSE) POLYMERASE” (RHIZEN PHARMACEUTICALS AG, priority 2021, published 2024)
